{"source": "paper PMC5653735", "about": "“Comparison of the oxidation of carcinogenic aristolochic acid I and II by microsomal cytochromes P450 in vitro: experimental and theoretical approaches” (Monatshefte Fur Chemie, 2017)", "target": "T1, CYP3A1 (Rattus norvegicus, UniProt P04800)", "T1 construct": "recombinant rat CYP3A1 in Supersomes (microsomes of baculovirus-transfected insect cells); with NADPH:CYP oxidoreductase (POR) and/or cytochrome b5", "T1 sequence (P04800 1-504)": "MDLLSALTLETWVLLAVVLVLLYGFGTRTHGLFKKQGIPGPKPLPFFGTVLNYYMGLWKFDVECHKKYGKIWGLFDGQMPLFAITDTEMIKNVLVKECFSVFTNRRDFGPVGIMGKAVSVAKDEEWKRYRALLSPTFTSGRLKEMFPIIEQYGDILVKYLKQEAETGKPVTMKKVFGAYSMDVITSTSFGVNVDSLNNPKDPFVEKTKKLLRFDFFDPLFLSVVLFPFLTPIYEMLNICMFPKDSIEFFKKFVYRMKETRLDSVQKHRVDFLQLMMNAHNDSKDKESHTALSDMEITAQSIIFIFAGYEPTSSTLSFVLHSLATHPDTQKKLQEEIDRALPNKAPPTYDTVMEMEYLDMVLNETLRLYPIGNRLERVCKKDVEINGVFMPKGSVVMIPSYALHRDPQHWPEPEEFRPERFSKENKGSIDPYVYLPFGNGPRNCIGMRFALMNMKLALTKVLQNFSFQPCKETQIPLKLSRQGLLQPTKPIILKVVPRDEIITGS", "assay": "HPLC of AAIa formed from AAII by recombinant CYP in insect-cell microsomes", "type": "cell-based", "data": [{"smiles": "O=C(O)c1cc2c(c3c1c([N+](=O)[O-])cc1ccccc13)OCO2", "note": "[AAII, 6-nitrophenanthro[3,4-d]-1,3-dioxole-5-carboxylic acid]", "values": [{"measurement": "HPLC of AAIa formed from AAII by recombinant CYP in insect-cell microsomes", "value": "only rat CYP of the 3A subfamily, CYP3A1, but not CYP3A2, was capable of oxidizing AAII to AAIa"}]}]}
